Test results: US10786690B2, “Amide derivatives of polycaffeoylquinic acids, process for producing same and uses thereof” (TEMISIS, priority 2016, dated 2020)

Assays:
TNF-α = TNF-α production by NHEKs in the inflammatory state (PMA + calcium ionophore, 0.06 mM Ca2+), ELISA; type: cell-based, human; conditions: PMA + calcium ionophore A23187 24 h, compounds 50 μM, dexamethasone 10 μM, relative to induced control
Protocol: The study was carried out on Normal Human Epidermal Keratinocytes (NHEKs) (Lonza, CC-2507, origin: foreskin) in monolayer culture in Epilife medium (Invitrogen, M-EPI-500-A) containing the components of the Human Keratinocyte Growth Supplement (HKGS) mixture (Invitrogen, S-001-K) added separately, except hydrocortisone having anti-inflammatory properties.
For the quantification of IL-8 and PGE2, the inflammatory state of the NHEKs in culture was induced by treatment with PMA (phorbol myristate acetate/10 ng/ml/H2O) for 24 h. Induction of IL-6 was achieved by treatment with PMA (10 ng/ml/H2O) combined with calcium ionophore A23187 (2 μM/DMSO) in medium containing calcium at a concentration of 0.8 mM. […]
Quantification of the various inflammatory mediators was carried out with specific kits, based on a standard curve, according to the instructions provided by the kits' suppliers, R&D Systems and Cayman Chemical.
Before induction of the inflammatory state, the NHEKs were treated with the compounds and reference molecules for 2 h. The inflammatory state was then induced according to the conditions described in the methodology section, the culture supernatants were collected, and the various inflammatory mediators were quantified by the ELISA technique. […]

female Balb/c mice = test: Imiquimod-induced psoriasis in Balb/c mice, PASI scoring; type: in vivo, mouse
Protocol: The study is performed on 40 female Balb/c mice, weighing roughly 18-20 g and randomized by weight into 5 groups (n=8) as function of the treatments, under controlled temperature (24±2° C.) and humidity (50±20%) conditions and with a 12-hour reversed light cycle (light from 20:00 to 08:00) (food and water ad libitum).
The compounds to be tested are as follows: • Excipial® neutral ointment (control) • PAT1657 (octyl-isochlorogenamide A) incorporated at 1.33% or 2.67% by mass in Excipial® ointment • Aldara® cream containing 5% imiquimod, an inducer of psoriasis • Dermoval® cream containing 0.05% clobetasol propionate and used for topical treatment of psoriasis (reference product)
The treatment groups are distributed as follows: • Group 1: no induction of psoriasis but cutaneous application of neutral ointment from day 1 to day 10 and treatment with Excipial® neutral ointment from day 7 to day 10 (negative control) (EP/EP); • Group 2: induction of psoriasis by cutaneous application of Aldara® cream containing imiquimod from day 1 to day 10 and treatment with Excipial® neutral ointment from day 7 to day 10 (positive control) (ALD/EP); • Group 3: induction of psoriasis by cutaneous application of Aldara® cream containing imiquimod from day 1 to day 10 and treatment with neutral ointment containing 1.33% compound PAT1657 from day 7 to day 10 (ALD/PAT1657-1.33%); • Group 4: induction of psoriasis by cutaneous application of Aldara® cream containing imiquimod from day 1 to day 10 and treatment with neutral ointment containing 2.67% compound PAT1657 from day 7 to day 10 (ALD/PAT1657-2.67%); • Group 5: induction of psoriasis by cutaneous application of Aldara® cream containing imiquimod from day 1 to day 10 and treatment with Dermoval® cream from day 7 to day 10 (ALD/Dermoval®). Induction and Maintenance of Psoriasis
To perform the induction of psoriasis, it was necessary to remove the hair from the backs of the animals by shaving and plucking to have direct access to the skin tissue. Psoriasis was induced in all mice in groups 2 to 5 by daily cutaneous application for 10 days, from day 1 to day 10, of roughly 70 mg of Aldara® cream. The cream was applied to the shaved backs of the mice with a silk brush. For the mice in group 1, daily cutaneous application of Excipial® neutral ointment was carried out under the same conditions: roughly 70 mg was applied for 10 days, from day 1 to day 10, in the morning using a silk brush.
The ointments containing compound PAT1657 at the two doses to be tested, Excipial® neutral ointment and Dermoval® cream, were administered by cutaneous applications for 4 days, from day 7 to day 10, on the backs of the mice in the psoriasis induction region. For each application, roughly 100 mg of ointment or cream was applied with a silk brush, at least 4 hours after application of Aldara® cream or Excipial® neutral ointment for induction or not of psoriasis.
The psoriasis area and severity index (PASI) was calculated daily throughout the experiment from day 1 to day 11, based on the following three parameters: • Presence of erythema, i.e. skin redness, in the psoriasis induction region, scored as follows: 0=no or no further erythema; 1=mild erythema; 2=moderate erythema; 3=severe erythema; 4=very severe erythema. • Degree of induration, i.e. skin hardening and thickening, in the psoriasis induction region, scored as follows: 0=no or no further induration; 1=mild induration; 2=moderate induration; 3=severe induration; 4=very severe induration. • Degree of desquamation, i.e. presence of plaques on the skin surface, in the psoriasis induction region, scored as follows: 0=no or no further desquamation; 1=mild desquamation; 2=moderate desquamation; 3=severe desquamation; 4=very severe desquamation.
The psoriasis area and severity index is the sum of the scores for these three parameters. […]

[1] = day 8, 1.33% in ointment, vs ALD/EP group, p=0.001
[2] = day 10, 1.33% in ointment, vs ALD/EP group, p=0.001
[3] = day 10, 2.67% in ointment, vs ALD/EP group, p=0.001
[4] = day 11, 1.33% in ointment, vs ALD/EP group, p=0.001
[5] = day 11, 2.67% in ointment, vs ALD/EP group, p=0.001

## CCCCCCCCNC(=O)[C@]1(O)C[C@@H](OC(=O)/C=C/c2ccc(O)c(O)c2)[C@@H](O)[C@H](OC(=O)/C=C/c2ccc(O)c(O)c2)C1 [PAT1657, (2E,2′E)-((1R,2S,3R,5S)-2,5-dihydroxy-5-(octylcarbamoyl)cyclohexane-1,3-diyl) bis(3-(3,4-dihydroxyphenyl)acrylate)]
TNF-α
  TNF-α production: most marked effects and are more effective than dexamethasone itself
Female Balb/c mice; [1]
  mean psoriasis area and severity index (PASI): significantly lower
  mean score for degree of induration in the psoriasis induction region: significantly lower
  mean score for presence of erythema in the psoriasis induction region: significantly lower
Female Balb/c mice; day 8, 1.33% in ointment, vs ALD/EP group, p=0.007
  mean score for degree of desquamation in the psoriasis induction region: significantly lower
Female Balb/c mice; day 8, 2.67% in ointment, vs ALD/EP group, p=0.001
  mean psoriasis area and severity index (PASI): significantly lower
Female Balb/c mice; day 8, 2.67% in ointment, vs ALD/EP group, p=0.004
  mean score for degree of induration in the psoriasis induction region: significantly lower
Female Balb/c mice; day 8, 2.67% in ointment, vs ALD/EP group, p=0.006
  mean score for degree of desquamation in the psoriasis induction region: significantly lower
Female Balb/c mice; day 8, 2.67% in ointment, vs ALD/EP group, p=0.007
  mean score for presence of erythema in the psoriasis induction region: significantly lower
Female Balb/c mice; day 9, day 10 and day 11, 1.33% in ointment, vs ALD/EP group, p=0.001
  mean psoriasis area and severity index (PASI): significantly lower
Female Balb/c mice; day 9, day 10 and day 11, 2.67% in ointment, vs ALD/EP group, p=0.001
  mean psoriasis area and severity index (PASI): significantly lower
Female Balb/c mice; day 9, 1.33% in ointment, vs ALD/Dermoval group, p=0.015
  mean score for degree of induration in the psoriasis induction region: significantly higher
Female Balb/c mice; day 9, 1.33% in ointment, vs ALD/EP group, p=0.001
  mean score for degree of induration in the psoriasis induction region: significantly lower
Female Balb/c mice; day 9, 1.33% in ointment, vs ALD/EP group, p=0.002
  mean score for presence of erythema in the psoriasis induction region: significantly lower
Female Balb/c mice; day 9, 2.67% in ointment, vs ALD/EP group, p=0.001
  mean score for degree of induration in the psoriasis induction region: significantly lower
Female Balb/c mice; day 9, 2.67% in ointment, vs ALD/EP group, p=0.002
  mean score for presence of erythema in the psoriasis induction region: significantly lower
Female Balb/c mice; day 9 and day 10, 1.33% in ointment, vs ALD/EP group, p=0.001
  mean score for degree of desquamation in the psoriasis induction region: significantly lower
Female Balb/c mice; day 9 and day 10, 2.67% in ointment, vs ALD/EP group, p=0.001
  mean score for degree of desquamation in the psoriasis induction region: significantly lower
Female Balb/c mice; day 10, 1.33% in ointment, vs ALD/Dermoval group, p=0.025
  mean score for degree of induration in the psoriasis induction region: significantly higher
Female Balb/c mice; day 10, 1.33% in ointment, vs ALD/Dermoval group, p=0.037
  mean score for presence of erythema in the psoriasis induction region: significantly lower
Female Balb/c mice; [2]
  mean score for degree of induration in the psoriasis induction region: significantly lower
  mean score for presence of erythema in the psoriasis induction region: significantly lower
Female Balb/c mice; day 10, 2.67% in ointment, vs ALD/Dermoval group, p=0.025
  mean score for degree of induration in the psoriasis induction region: significantly higher
Female Balb/c mice; day 10, 2.67% in ointment, vs ALD/Dermoval group, p=0.079
  mean score for presence of erythema in the psoriasis induction region: tendency to be significantly lower
Female Balb/c mice; [3]
  mean score for degree of induration in the psoriasis induction region: significantly lower
  mean score for presence of erythema in the psoriasis induction region: significantly lower
Female Balb/c mice; day 11, 1.33% in ointment, vs ALD/Dermoval group
  mean score for degree of desquamation in the psoriasis induction region: significantly higher
Female Balb/c mice; day 11, 1.33% in ointment, vs ALD/Dermoval group, p=0.001
  mean score for presence of erythema in the psoriasis induction region: significantly lower
Female Balb/c mice; day 11, 1.33% in ointment, vs ALD/Dermoval group, p=0.063
  mean score for degree of induration in the psoriasis induction region: tendency to be significantly higher
Female Balb/c mice; [4]
  mean score for degree of desquamation in the psoriasis induction region: significantly lower
  mean score for degree of induration in the psoriasis induction region: significantly lower
  mean score for presence of erythema in the psoriasis induction region: significantly lower
Female Balb/c mice; day 11, 2.67% in ointment, vs ALD/Dermoval group, p=0.014
  mean score for presence of erythema in the psoriasis induction region: significantly lower
Female Balb/c mice; day 11, 2.67% in ointment, vs ALD/Dermoval group, p=0.059
  mean score for degree of desquamation in the psoriasis induction region: tended to be significantly higher
Female Balb/c mice; [5]
  mean score for degree of desquamation in the psoriasis induction region: significantly lower
  mean score for degree of induration in the psoriasis induction region: significantly lower
  mean score for presence of erythema in the psoriasis induction region: significantly lower
